Experimental data published in ChEMBL document CHEMBL3046395, “Synthesis and pharmacological investigation of novel 3-(benzyl)-2-substituted amino-3H-quinazolin-4-ones as analgesic and anti-inflammatory agents” (Med Chem Res, 2008).

Columns and labels:
[1] = test system: Rattus norvegicus; experiment: Anti-inflammatory activity in Rattus norvegicus (rat) assessed as inhibition of carrageenan-induced paw edema at 20 mg/kg, po measured at 2 hr post carrageenan-challenge (reference value: 5.7+/- 0.32%); format: functional
[2] = test system: Rattus norvegicus; experiment: Gastrointestinal toxicity in Rattus norvegicus Wistar albino (rat) assessed as ulcer index at 20 mg/kg, ip administered QD for 3 days measured on day 4 (reference value: 0.15 +/- 0.32); format: organism-based; set-up: dose 20 mg/kg, route intraperitoneal; details: in vivo, 72 h
[3] = test system: Mus musculus; experiment: Analgesic activity in Mus musculus Wistar albino (mouse) at 10 mg/kg, po after 2 hr by tail-flick test (reference value: 4 +/- 0.59%); format: functional
[4] = test system: Mus musculus; experiment: Analgesic activity in Mus musculus Wistar albino (mouse) at 20 mg/kg, po after 1 hr by tail-flick test (reference value: 6 +/- 0.49%); format: functional
[5] = test system: Mus musculus; experiment: Analgesic activity in Mus musculus Wistar albino (mouse) at 10 mg/kg, po after 1 hr by tail-flick test (reference value: 6 +/- 0.49%); format: functional
[6] = test system: Rattus norvegicus; experiment: Anti-inflammatory activity in Rattus norvegicus (rat) assessed as inhibition of carrageenan-induced paw edema at 10 mg/kg, po measured at 3 hr post carrageenan-challenge (reference value: 3.2 +/- 0.93%); format: functional
[7] = test system: Mus musculus; experiment: Analgesic activity in Mus musculus Wistar albino (mouse) at 10 mg/kg, po after 30 min by tail-flick test (reference value: 2 +/- 0.35%); format: functional
[8] = test system: Rattus norvegicus; experiment: Anti-inflammatory activity in Rattus norvegicus (rat) assessed as inhibition of carrageenan-induced paw edema at 10 mg/kg, po measured at 30 min post carrageenan-challenge (reference value: 5.1 +/- 0.29%); format: functional; details: 0.5 h
[9] = test system: Rattus norvegicus; experiment: Anti-inflammatory activity in Rattus norvegicus (rat) assessed as inhibition of carrageenan-induced paw edema at 20 mg/kg, po measured at 1 hr post carrageenan-challenge (reference value: 6.1 +/- 0.27%); format: functional
[10] = test system: Rattus norvegicus; experiment: Anti-inflammatory activity in Rattus norvegicus (rat) assessed as inhibition of carrageenan-induced paw edema at 10 mg/kg, po measured at 2 hr post carrageenan-challenge (reference value: 5.7+/- 0.32%); format: functional
[11] = test system: Rattus norvegicus; experiment: Anti-inflammatory activity in Rattus norvegicus (rat) assessed as inhibition of carrageenan-induced paw edema at 20 mg/kg, po measured at 3 hr post carrageenan-challenge (reference value: 3.2 +/- 0.93%); format: functional
[12] = test system: Mus musculus; experiment: Analgesic activity in Mus musculus Wistar albino (mouse) at 20 mg/kg, po after 30 min by tail-flick test (reference value: 2 +/- 0.35%); format: functional
[13] = test system: Rattus norvegicus; experiment: Anti-inflammatory activity in Rattus norvegicus (rat) assessed as inhibition of carrageenan-induced paw edema at 20 mg/kg, po measured at 30 min post carrageenan-challenge (reference value: 5.1 +/- 0.29%); format: functional; details: 0.5 h
[14] = test system: Mus musculus; experiment: Analgesic activity in Mus musculus Wistar albino (mouse) at 10 mg/kg, po after 3 hr by tail-flick test (reference value: 4 +/- 0.91%); format: functional
[15] = test system: Mus musculus; experiment: Analgesic activity in Mus musculus Wistar albino (mouse) at 20 mg/kg, po after 2 hr by tail-flick test (reference value: 4 +/- 0.59%); format: functional
[16] = test system: Rattus norvegicus; experiment: Anti-inflammatory activity in Rattus norvegicus (rat) assessed as inhibition of carrageenan-induced paw edema at 10 mg/kg, po measured at 1 hr post carrageenan-challenge (reference value: 6.1 +/- 0.27%); format: functional
[17] = test system: Mus musculus; experiment: Analgesic activity in Mus musculus Wistar albino (mouse) at 20 mg/kg, po after 3 hr by tail-flick test (reference value: 4 +/- 0.91%); format: functional

Row | Structure (SMILES) | inhibition in vivo at 20 mg/kg [1] [%] | UI [2] | Activity [3] [%] | Activity [4] [%] | Activity [5] [%] | inhibition in vivo at 10 mg/kg [6] [%] | Activity [7] [%] | inhibition in vivo at 10 mg/kg [8] [%] | inhibition in vivo at 20 mg/kg [9] [%] | inhibition in vivo at 10 mg/kg [10] [%] | inhibition in vivo at 20 mg/kg [11] [%] | Activity [12] [%] | inhibition in vivo at 20 mg/kg [13] [%] | Activity [14] [%] | Activity [15] [%] | inhibition in vivo at 10 mg/kg [16] [%] | Activity [17] [%]
1 | O=c1c2ccccc2nc(N/N=C/c2ccccc2[N+](=O)[O-])n1Cc1ccccc1 | 47 | 0.87 | 46 | 56 | 44 | 21 | 37 | 30 | 43 | 38 | 28 | 49 | 43 | 32 | 57 | 36 | 38
2 | O=C([O-])Cc1ccccc1Nc1c(Cl)cccc1Cl.[Na+] [DICLOFENAC SODIUM] | 60 | 1.65 | 45 | 55 | 43 | 33 | 37 | 32 | 52 | 39 | 42 | 46 | 45 | 33 | 62 | 38 | 39
3 | O=c1c2ccccc2nc(N/N=C/c2ccccc2Cl)n1Cc1ccccc1 | 42 | 0.86 | 41 | 49 | 37 | 26 | 34 | 30 | 38 | 35 | 31 | 46 | 38 | 29 | 53 | 32 | 35
4 | O=c1c2ccccc2nc(N/N=C/c2ccc(Cl)cc2)n1Cc1ccccc1 | 49 | 0.89 | 47 | 51 | 36 | 23 | 38 | 34 | 44 | 36 | 29 | 49 | 40 | 30 | 54 | 36 | 36
5 | O=c1c2ccccc2nc(NN=C(c2ccccc2)c2ccccc2)n1Cc1ccccc1 | 52 | 0.63 | 49 | 58 | 49 | 27 | 46 | 36 | 50 | 43 | 35 | 55 | 47 | 33 | 59 | 41 | 41
6 | Cc1nc2ccccc2c(=O)n1NC(=S)n1cccc1 | 60 |  | 50 |  |  |  |  |  |  | 44 |  |  |  |  | 65 |  | 
7 | COc1ccc(/C=N/Nc2nc3ccccc3c(=O)n2Cc2ccccc2)cc1 | 44 | 0.83 | 44 | 52 | 40 | 25 | 39 | 28 | 40 | 37 | 30 | 49 | 35 | 32 | 56 | 30 | 37
8 | O=c1c2ccccc2nc(N/N=C/c2ccc([N+](=O)[O-])cc2)n1Cc1ccccc1 | 49 | 0.82 | 42 | 48 | 42 | 24 | 38 | 31 | 45 | 37 | 31 | 46 | 42 | 34 | 54 | 31 | 39
9 | O=C1Nc2ccccc2/C1=N\Nc1nc2ccccc2c(=O)n1Cc1ccccc1 | 51 | 0.62 | 48 | 57 | 46 | 25 | 45 | 36 | 45 | 42 | 32 | 52 | 40 | 30 | 61 | 38 | 35
10 | CC(=O)Oc1ccccc1C(=O)O [ASPIRIN] |  | 1.73 |  |  |  |  |  |  |  |  |  |  |  |  |  |  | 
11 | Cc1ccccc1/C=N/Nc1nc2ccccc2c(=O)n1Cc1ccccc1 | 51 | 0.66 | 48 | 58 | 48 | 28 | 44 | 39 | 47 | 45 | 36 | 52 | 45 | 32 | 59 | 42 | 39
12 | CC/C(C)=N/Nc1nc2ccccc2c(=O)n1Cc1ccccc1 | 60 | 0.53 | 65 | 73 | 62 | 26 | 59 | 45 | 59 | 51 | 39 | 71 | 50 | 35 | 76 | 48 | 45
13 | CCC/C(C)=N/Nc1nc2ccccc2c(=O)n1Cc1ccccc1 | 67 | 0.48 | 67 | 77 | 60 | 30 | 58 | 47 | 65 | 53 | 39 | 67 | 58 | 40 | 79 | 51 | 48
14 | O=c1c2ccccc2nc(N/N=C/c2ccccc2)n1Cc1ccccc1 | 47 | 0.64 | 48 | 59 | 48 | 27 | 45 | 35 | 45 | 40 | 35 | 51 | 41 | 31 | 59 | 39 | 41
15 | CCN(CC)C(=S)Nn1c(-c2ccccc2)nc2ccccc2c1=O | 53 |  | 44 |  |  |  |  |  |  | 38 |  |  |  |  | 58 |  | 
16 | CCN(CC)C(=S)Nn1c(SC)nc2ccccc2c1=O | 62 |  | 56 |  |  |  |  |  |  | 40 |  |  |  |  | 67 |  | 
